The values below come from US20170184604A1, “DD1ALPHA RECEPTOR AND USES THEREOF IN IMMUNE DISORDERS” (THE GENERAL HOSPITAL CORPORATION, priority 2014, published 2017).

The subject of this test is DD1α. Briefly: Ig fusion protein-pull down assay. It counts as binding, human. The method, then:
FIGS. 6A-6E show physical association of DD1α with PD1 but not with PD-L1. (FIG. 6A) Interaction of DD1α with PD1 or DD1α. […] The bound Ig fusion proteins were detected with anti-Ig-APC. Empty vector (pcDNA3.1)-transfected cells stained with Ig proteins are shown as a negative control (gray filled) and other staining is shown as black open. (FIG. 6B) DD1α binds to both DD1α and PD1 on CD4+ T cells. Purified CD4+ T cells from Wt and DD1α−/− mice were assayed for binding to Ig fused DD1α or PD1 proteins. Cells were incubated with DD1α-Ig (open), PD1-Ig (open), or control Ig proteins (gray filled) and the bound Ig fusion proteins were detected by anti-Ig-APC. […] The bound Ig fusion proteins were detected by anti-Ig-APC. Binding amounts were determined by percentage of APC positive cells compared to control Ig protein-bound cells. (FIG. 6C) Ig-pulldown experiments show DD1α interaction with both DD1α and PD1. […] The bead bound proteins were eluted and determined by western blot analysis using anti-HA antibody (asterisks). (FIG. 6D) Ig fusion proteins (control Ig, DD1α-Ig, or PD1-Ig) were incubated with lysates from Nutlin-3-treated MCF7 cells and pulled down using protein A/G agarose. The bead bound proteins were eluted and detected by western blot analysis with anti-DD1α or anti-PD1 antibody (asterisk). (FIG. 6E) p53-mediated induction of PD1 and PD-L1. MCF7 cells were treated by Nutlin-3 (10 μM) for 1 to 3 days. MCF7 cells were transfected with control siRNA or p53 siRNA for 24 hours and treated with CPT (500 nM) or DMSO (control) for 1 and 2 days. The levels of indicated proteins were analyzed by western blot analysis. Total RNAs from control siRNA or p53 siRNA transfected MCF7 cells were assessed for mRNA levels of PD1 or PD-L1 by real-time quantitative PCR. PD1 or PD-L1 mRNA levels were normalized to 36B4 expression and shown as mean±SD (n=3). Protein levels of PD1 and PD-L1 were examined in EJ-p53tet cells in the absence or presence of tetracycline (tet), ZR75-1 cells treated with CPT (500 nM), or A375 cells exposed to 13 Gy ionizing irradiation for the indicated times.
Ig fusion proteins (control Ig, DD1α-Ig, or PD1-Ig) were incubated with lysates from Nutlin-3-treated MCF7 cells and pulled down using proten A/G agarose. The bead bound proteins were eluted and detected by western blot analysis with anti-DD1α or anti-PD1 antibody.
Based on the results that both PD-1 and DD1α receptors on T cells contribute to the co-inhibitory roles for DD1α(FIG. 5), it was tested whether DD1α could physically and functionally associate with PD-1 receptor. […] To confirm the specificity of this interaction, the inventors carried out Ig fusion protein-pull down assays using lysates from PD-1, DD1α, or TIM3-transfected 293T cells. […]

Sequence of DD1α (Q9H7M9 33-311): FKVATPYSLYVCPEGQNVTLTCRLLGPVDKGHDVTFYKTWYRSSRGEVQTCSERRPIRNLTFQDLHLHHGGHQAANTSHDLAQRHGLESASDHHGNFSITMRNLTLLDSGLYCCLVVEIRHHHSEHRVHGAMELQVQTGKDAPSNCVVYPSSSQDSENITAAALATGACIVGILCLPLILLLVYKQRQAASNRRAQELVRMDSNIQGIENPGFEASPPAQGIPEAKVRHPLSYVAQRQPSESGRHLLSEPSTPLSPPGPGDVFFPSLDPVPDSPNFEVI

On to “DD1α-Ig: the extracellular region of DD1α fused with the immunoglobulin G Fc segment”, for which the “pull down of DD1α” value (lysates from transfected 293T cells) is recorded as “pulled down”. Also, the “pull down of endogenous DD1α receptor” value (lysates of Nutlin-3-treated MCF7 cells) is reported as “detected”.
